Measured values from patent US11985976B2, “Mixture of mectins and pyrethroids and uses thereof” (Valent BioSciences LLC, priority 2020, dated 2024).
Values joined by “and” are separate entries in the source; they are usually repeats but may differ in a detail not shown here. Equal entries are not always repeated. Where two headings read alike, the source gives them in different places.

Tests used:
[1] = system: Permethrin Resistant A. aegypti (single KDR mutation); assay type: in vivo, Aedes aegypti
Description: (§1) In this bioassay, a wind tunnel bioassay was performed in New Mexico in July 2017. Aedes aegypti that were known to be resistant (single knockdown resistance (“KDR”) mutation) and susceptible to permethrin were used in the studies. The following solutions were applied to adult A. aegypti mosquitoes: 1) 1.5% abamectin; 2) 1.5% ivermectin; 3) 2% fenpropathrin; 4) a mixture of 2% fenpropathrin and 1.5% abamectin; 5) a mixture of 2% fenpropathrin and 1.5% abamectin; 6) a mixture of 2% fenpropathrin and 1.5% ivermectin; and 7) a mixture of 2% fenpropathrin and 1.5% ivermectin.
(§2) To determine if the mixtures provided unexpected results, the observed combined efficacy (“OCE”) was divided by the expected combined efficacy (“ECE”) wherein the expected ECE is calculated by the Abbott method: ECE=A+B−(AB/100), wherein ECE is the expected combined efficacy and in which A and B are the percent control given by the single active ingredients. If the ratio between the OCE of the mixture and the ECE of the mixture is greater than 1, then greater than expected interactions are present in the mixture. (Gisi, Synergistic Interaction of Fungicides in Mixtures, The American Phytopathological Society, 86:11, 1273-1279, 1996).

[2] = system: Permethrin Susceptible A. aegypti; assay: Wind tunnel bioassay, adult mosquitoes (Example 1); assay type: in vivo
Description: as §1, §2

[3] = system: Permethrin Resistant C. quinquefasciatus; assay: Wind tunnel bioassay, adult mosquitoes (Example 4); assay type: in vivo, Culex quinquefasciatus
Description: In this bioassay, a wind tunnel bioassay was performed in New Mexico in March 2020. C. quinquefasciatus that were known to be resistant and susceptible to permethrin were used in the studies. The following solutions were applied to adult C. quinquefasciatus mosquitoes: 1) 5% permethrin; 2) a mixture of 5% permethrin and, 1.5% abamectin; 3) a mixture of 5% permethrin, 1.5% abamectin and 1% C8, 9, 10 fatty acids; 4) a mixture of 5% permethrin and 1.5% ivermectin; and 5) a mixture of 5% permethrin, 1.5% ivermectin and 1% C8, 9, 10 fatty acids. Percent mortality was recorded at 15 minutes, 1 hour, 24 hours and 48 hours.

[4] = system: Permethrin Susceptible C. quinquefasciatus; assay: Wind tunnel bioassay, adult mosquitoes (Example 4); assay type: in vivo, Culex quinquefasciatus
Description: In this bioassay, a wind tunnel bioassay was performed in New Mexico in March 2020. C. quinquefasciatus that were known to be resistant and susceptible to permethrin were used in the studies. […] Percent mortality was recorded at 15 minutes, 1 hour, 24 hours and 48 hours.

[5] = system: Permethrin Resistant C. quinquefasciatus; assay type: in vivo
Description: (§3) If the ratio between the OCE of the mixture and the ECE of the mixture is greater than 1, then greater than expected interactions are present in the mixture. (Gisi, Synergistic Interaction of Fungicides in Mixtures, The American Phytopathological Society, 86:11, 1273-1279, 1996).
(§4) In this bioassay, a wind tunnel bioassay was performed in New Mexico in March 2020. C. quinquefasciatus that were known to be resistant and susceptible to permethrin were used in the studies. The following solutions were applied to adult C. quinquefasciatus mosquitoes: 1) 1.5% abamectin; 2) 1.5% ivermectin; 3) 5% pyrethrum; 4) a mixture of 5% pyrethrum and 1.5% abamectin; and 5) a mixture of 5% pyrethrum and 1.5% ivermectin. Percent mortality was recorded at 15 minutes, 1 hour, 24 hours and 48 hours.

[6] = system: Permethrin Susceptible C. quinquefasciatus; assay: Wind tunnel bioassay, adult mosquitoes (Example 5); assay type: in vivo
Description: as §3, §4

| Molecule | % Mortality [1] | % Mortality [2] [%] | % Mortality ([3]; 1 Hr) [%] | % Mortality ([3]; 15 Min) [%] | % Mortality ([3]; 24 Hr) [%] | % Mortality ([3]; 48 Hr) [%] | % Mortality ([4]; 1 Hr) [%] | % Mortality ([4]; 15 Min) [%] | % Mortality ([4]; 24 Hr) [%] | % Mortality ([4]; 48 Hr) [%] | % Mortality ([5]; Example 5, 1 Hr) [%] | % Mortality ([5]; Example 5, 15 Min) [%] | % Mortality ([5]; Example 5, 24 Hr) [%] | % Mortality ([5]; Example 5, 48 Hr) [%] | % Mortality ([6]; 1 Hr) [%] | % Mortality ([6]; 15 Min) [%] | % Mortality ([6]; 24 Hr) [%] | % Mortality ([6]; 48 Hr) [%] |
| --- | --- | --- | --- | --- | --- | --- | --- | --- | --- | --- | --- | --- | --- | --- | --- | --- | --- | --- |
| CC1(C)C(C(=O)OC(C#N)c2cccc(Oc3ccccc3)c2)C1(C)C (stereo not drawn) [2.0% fenpropathrin, fenpropathrin] | 76% and 75.8% | 99.6 | – | – | – | – | – | – | – | – | – | – | – | – | – | – | – | – |
| CC1(C)C(C=C(Cl)Cl)C1C(=O)OCc1cccc(Oc2ccccc2)c1 (stereo not drawn) [5% permethrin, permethrin] | – | – | 78.8 | 0 | 65 | 66.3 | 100 | 65 | 100 | 100 | – | – | – | – | – | – | – | – |
| abamectin [1.5% abamectin] | 91% and 91.3% | 100 | – | – | – | – | – | – | – | – | 26.3 | 0 | 78.8 | 80 | 73.8 | 15 | 91.3 | 92.5 |
| ivermectin [1.5% ivermectin] | 64% and 62.9% | 100 | – | – | – | – | – | – | – | – | 42.5 | 0 | 88.8 | 91.3 | 62.5 | 5 | 100 | 100 |
